The source of these data is patent US9023852B2, “1, 2, 4-thiadiazol-5-ylpiperazine derivatives useful in the treatment of neurodegenerative diseases” (Remynd NV, priority 2011, dated 2015).

By EC50 is commonly meant the concentration at which the effect is half-maximal.

The test system of this experiment is M17—3TAU(P301L) cells. Briefly: Neuroblastoma tauopathy model: inhibition of TAU-induced cytotoxicity (LDH). Format: cell-based. The conditions noted are these: Homo sapiens, 168 h; inhibition of TAU-induced toxicity (LDH), 7 days differentiation with retinoic acid. From the text: A TAU expression plasmid was constructed by sub-cloning the cDNA encoding for human TAU-P301L protein, wherein proline at position 301 is substituted by a leucine residue, into mammalian expression vector pcDNA3.1 resulting in the plasmid pcDNA3.1-TAUP301L. Plasmids pcDNA3.1 and pcDNA3.1-TAU P301L were transfected into human neuroblastoma cells (BE-M17; ATCC No. CRL-2267™) using lipofectamine reagent and subsequently, independent clonal cell lines with the plasmids stably integrated into the genome were selected by antibiotic resistance selection (Geneticin (G418)), resulting in cell lines M17.pcDNA3 and M17—3TAUP301L. Expression of the TAUP301L gene in the M17—3TAUP301L cells was confirmed by Western blot analysis.
Differentiation of the cells with RA leads to phosphorylation and subsequent aggregation of TAU, inducing a tauopathy in these cells. Cytotoxicity of cells was measured by quantification of lactate dehydrogenase (LDH) levels. In dead cells LDH is leaked out of the cells into the medium due to a loss of plasma-membrane integrity.
Briefly, 3 days preceding the experiment pre-cultures of M17.pcDNA3 and M17—3TAU(P301L) cells were prepared, starting from a stock culture, at a density of 50.000-100.000 cells/cm2 in detection medium (Optimem Reduced Serum without phenol red (Gibco, Cat. 31985-047) supplemented with 1% fetal calf serum (FCS), 1 mM sodium pyruvate, 1× non-essential amino acids (NEAA), 500 μg/ml G418 and 0.5× antibiotic/antimycotic (ABAM)). At the day of the experiment these precultures were diluted to ˜0, 1.106 cells/ml in detection medium without FCS and 60 μL of this suspension is dispensed per well into a 96-well microtiter plate. After 3 hours of incubation at 37° C./5% CO2 an equal volume of detection medium containing 2.5 μM RA was added and subsequently incubated for 7 days at 37° C./5% CO2. After 7 days, LDH activity was determined using the Promega Cytotox 96 Non-Radioactive cytotoxicity assay (Cat. G1780), according the manufacturer's instructions. Cytotoxicity is measured as the ratio of LDH increase in the supernatant divided by the LDH increase in the total cell suspension (sum of the LDH measured in cells and supernatant).
The M17—3TAU(P301L) cell line makes it possible to assess the ability of novel compounds to inhibit TAU-induced cytotoxicity. […] Compounds were tested for their ability to hamper TAU-induced toxicity at different concentrations, ranging from low non-effective concentrations to high potent concentrations. Afterwards, the dose-dependent inhibition curve was used to calculate their EC50 (Table 1).

On to `Cc1ccc(-c2nsc(N3CCN(CCc4ccccc4)CC3)n2)cn1` [Example 94, 1-[3-(6-Methyl-pyridin-3-yl)-[1,2,4]thiadiazol-5-yl]-4-phenethyl-piperazine], for which the EC50 came to 9.5 nM.
The compound `Clc1cncc(-c2nsc(N3CCN(CCC4CCOCC4)CC3)n2)c1` [Example 166, 3-(5-chloropyridin-3-yl)-5-(4-(2-(tetrahydro-2H-pyran-4-yl)ethyl)piperazin-1-yl)-1,2,4-thiadiazole] registered an EC50 of 0.7 nM.
As for `Cc1ccc(-c2nsc(N3CCN(Cc4ccccc4C)CC3)n2)cn1` [Example 150, 1-(2-Methyl-benzyl)-4-[3-(6-methyl-pyridin-3-yl)-[1,2,4]thiadiazol-5-yl]-piperazine], it took 185 nM to reach a half-maximal effect (EC50).
The compound `Cc1cc(-c2nsc(N3CCN(CCc4ccc(F)c(F)c4)CC3)n2)cnn1` [Example 175, 5-(4-(3,4-difluorophenethyl)piperazin-1-yl)-3-(6-methylpyridazin-4-yl)-1,2,4-thiadiazole] returned a concentration for a half-maximal effect (EC50) of 13.4 nM.
For the compound `COc1cccc(CCN2CCN(c3nc(-c4ccc(F)cc4)ns3)CC2)c1` [Example 34, 1-[3-(4-Fluoro-phenyl)-[1,2,4]thiadiazol-5-yl]-4-[2-(3-methoxy-phenyl)-ethyl]-piperazine], a half-maximal response (EC50) required 1.4 nM. This EC50 is about 9.6-fold lower than that of the compound before.
`Clc1ccc(-c2nsc(N3CCN(CC4(c5ccc(Cl)cc5)CC4)CC3)n2)cc1` [Example 68, 1-[1-(4-Chloro-phenyl)-cyclopropylmethyl]-4-[3-(4-chloro-phenyl)-[1,2,4]thiadiazol-5-yl]-piperazine]: the EC50 worked out at 899 nM.
As for `COc1ccc(C(F)CN2CCN(c3nc(-c4ccc(Cl)cc4)ns3)CC2)cc1` (centres unmarked) [Example 64, 1-[3-(4-Chloro-phenyl)-[1,2,4]thiadiazol-5-yl]-4-[2-fluoro-2-(4-methoxy-phenyl)-ethyl]-piperazine], the EC50 is 9.8 nM.
In turn, `COc1ccc(CCN2CCN(c3nc(-c4cccc(F)c4)ns3)CC2)cc1` [Example 84, 1-[3-(3-Fluoro-phenyl)-[1,2,4]thiadiazol-5-yl]-4-[2-(4-methoxy-phenyl)-ethyl]-piperazine] had an EC50 of 0.7 nM.
In the case of `COc1ccc(CCN2CCN(c3nc(-c4cccc(OC)c4)ns3)CC2)cc1` [Example 18, 1-[2-(4-Methoxy-phenyl)-ethyl]-4-[3-(3-methoxy-phenyl)[1,2,4]thiadiazol-5-yl]-piperazine], the response was half-maximal at 367 nM (EC50).
In turn, `Fc1ccc(CCN2CCN(c3nc(-c4ccc(Cl)cc4)ns3)CC2)cc1F` [Example 134, 1-[3-(4-Chloro-phenyl)-[1,2,4]thiadiazol-5-yl]-4-[2-(3,4-difluoro-phenyl)-ethyl]-piperazine] showed an EC50 of 37.8 nM.
`Fc1cccc(-c2nsc(N3CCN(CCc4ccccc4)CC3)n2)c1` [Example 83, 1-[3-(3-Fluoro-phenyl)-[1,2,4]thiadiazol-5-yl]-4-phenethyl-piperazine]: the EC50 amounted to 9.5 nM.
In the case of `COc1ccc(CCN2CCN(c3nc(-c4cccc(Cl)c4)ns3)CC2)cc1` [Example 41, 1-[3-(3-Chloro-phenyl)-[1,2,4]thiadiazol-5-yl]-4-[2-(4-methoxy-phenyl)-ethyl]-piperazine] it was 0.7 nM; in that of `COc1cccc(CCN2CCN(c3nc(-c4ccc(OC(F)(F)F)cc4)ns3)CC2)c1` [Example 36, 1-[2-(3-Methoxy-phenyl)-ethyl]-4-[3-(4-trifluoromethoxy-phenyl)-[1,2,4]thiadiazol-5-yl]-piperazine], 119 nM; in that of `COc1ccc(CCN2CCN(c3nc(-c4ccc(C(F)(F)F)nc4)ns3)CC2)cc1` [Example 42, 1-[2-(4-Methoxy-phenyl)-ethyl]-4-[3-(6-trifluoromethyl-pyridin-3-yl)-[1,2,4]thiadiazol-5-yl]-piperazine], 0.3 nM.
As to `Cc1ccc(-c2nsc(N3CCN(CCc4ccc(Cl)cc4)CC3)n2)cn1` [Example 98, 1-[2-(4-Chloro-phenyl)-ethyl]-4-[3-(6-methyl-pyridin-3-yl)-[1,2,4]thiadiazol-5-yl]-piperazine], the EC50 amounted to 80.6 nM.
Turning to `COc1ccc(CCN2CCN(c3nc(-c4ccc(Cl)cn4)ns3)CC2)cc1` [Example 126, 1-[3-(5-Chloro-pyridin-2-yl)-[1,2,4]thiadiazol-5-yl]-4-[2-(4-methoxy-phenyl)-ethyl]-piperazine], the EC50 was found to be 7 nM. This EC50 is about 12-fold lower than that of the compound before.
Consider `Clc1cccc(-c2nsc(N3CCN(CCc4ccccc4)CC3)n2)c1` [Example 82, 1-[3-(3-Chloro-phenyl)-[1,2,4]thiadiazol-5-yl]-4-phenethyl-piperazine], for which the response was half-maximal at 4 nM (EC50).
Consider `Fc1ccc(CCN2CCN(c3nc(-c4cccc(F)c4)ns3)CC2)cc1` [Example 86, 1-[2-(4-Fluoro-phenyl)-ethyl]-4-[3-(3-fluoro-phenyl)-[1,2,4]thiadiazol-5-yl]-piperazine], for which the EC50 was 8.9 nM.
`Clc1cccc(-c2nsc(N3CCN(CCC4CCCCC4)CC3)n2)c1` [Example 162, 3-(3-chlorophenyl)-5-(4-(2-cyclohexylethyl)piperazin-1-yl)-1,2,4-thiadiazole]: the EC50 worked out at 3.3 nM.
Compound `COc1cccc(CCN2CCN(c3nc(-c4cccc(Cl)c4)ns3)CC2)c1` [Example 48, 1-[3-(3-Chloro-phenyl)-[1,2,4]thiadiazol-5-yl]-4-[2-(3-methoxy-phenyl)-ethyl]-piperazine] displayed an EC50 of 0.6 nM. Compared with the last compound, the EC50 is about 5.5-fold lower.
In the case of `N#Cc1ccc(-c2nsc(N3CCN(CCc4ccc(C(F)(F)F)cc4)CC3)n2)cc1` [Example 147, 4-(5-{4-[2-(4-Trifluoromethyl-phenyl)-ethyl]-piperazin-1-yl}-[1,2,4]thiadiazol-3-yl)-benzonitrile] it was 176 nM; in that of `COc1cccc(CCN2CCN(c3nc(-c4cnccn4)ns3)CC2)c1` [Example 77, 2-(5-{4-[2-(3-Methoxy-phenyl)-ethyl]-piperazin-1-yl}-[1,2,4]thiadiazol-3-yl)-pyrazine], 261 nM; in that of `COc1cc(CCN2CCN(c3nc(-c4ccnc(Cl)c4)ns3)CC2)ccn1` [Example 168, 3-(2-chloropyridin-4-yl)-5-(4-(2-(2-methoxypyridin-4-yl)ethyl)piperazin-1-yl)-1,2,4-thiadiazole], 1.5 nM.
In the case of `Cc1ccccc1CN1CCN(c2nc(-c3ccc(F)c(F)c3)ns2)CC1` [Example 107, 1-[3-(3,4-Difluoro-phenyl)-[1,2,4]thiadiazol-5-yl]-4-(2-methyl-benzyl)-piperazine] it was 72.2 nM; in that of `Clc1ccc(CCN2CCN(c3nc(-c4ccc(Cl)cc4)ns3)CC2)cc1` [Example 25, 1-[2-(4-Chloro-phenyl)-ethyl]-4-[3-(4-chloro-phenyl)-[1,2,4]thiadiazol-5-yl]-piperazine], 7.7 nM.
`Clc1cncc(-c2nsc(N3CCN(CCN4CCCCC4)CC3)n2)c1` [Example 163, 3-(5-chloropyridin-3-yl)-5-(4-(2-(piperidin-1-yl)ethyl)piperazin-1-yl)-1,2,4-thiadiazole] showed an EC50 of 13 nM.
Next, `COc1cc(CCN2CCN(c3nc(-c4ccc(C)nc4)ns3)CC2)ccn1` [Example 97, 1-[2-(2-Methoxy-pyridin-4-yl)-ethyl]-4-[3-(6-methyl-pyridin-3-yl)-[1,2,4]thiadiazol-5-yl]-piperazine]: 51.3 nM; `COc1cc(CCN2CCN(c3nc(-c4cccc(F)c4)ns3)CC2)ccn1` [Example 90, 1-[3-(3-Fluoro-phenyl)-[1,2,4]thiadiazol-5-yl]-4-[2-(2-methoxy-pyridin-4-yl)-ethyl]-piperazine]: 6.8 nM; `COc1cccc(CCN2CCN(c3nc(-c4cc(Cl)cc(Cl)c4)ns3)CC2)c1` [Example 31, 1-[3-(3,5-Dichloro-phenyl)-[1,2,4]thiadiazol-5-yl]-4-[2-(3-methoxy-phenyl)-ethyl]-piperazine]: 21.1 nM.
As for `N#Cc1ccc(-c2nsc(N3CCN(CCc4ccc(Cl)cc4)CC3)n2)cc1` [Example 112, 4-(5-{4-[2-(4-Chloro-phenyl)-ethyl]piperazin-1-yl}-[1,2,4]thiadiazol-3-yl)-benzonitrile], a half-maximal response (EC50) required 56.7 nM.
Turning to `Fc1ccc(CCN2CCN(c3nc(-c4cc(Cl)ccn4)ns3)CC2)cc1F` [Example 157, 3-(4-chloropyridin-2-yl)-5-(4-(3,4-difluorophenethyl)piperazin-1-yl)-1,2,4-thiadiazole], it took 29 nM to reach a half-maximal effect (EC50).
`COc1ccc(CCN2CCN(c3nc(-c4cccc(F)c4)ns3)CC2)cn1` [Example 100, 1-[3-(3-Fluoro-phenyl)-[1,2,4]thiadiazol-5-yl]-4-[2-(6-methoxy-pyridin-3-yl)-ethyl]-piperazine]: the EC50 is 4.3 nM.
